Source: ChEMBL document CHEMBL4138123, “Design, synthesis and biological evaluation of novel pyrazolochalcones as potential modulators of PI3K/Akt/mTOR pathway and inducers of apoptosis in breast cancer cells” (Eur J Med Chem, 2017)

Assays:
SK-OV-3 = assay: Cytotoxicity against human SKOV3 cells assessed as cell growth at 10 uM after 48 hrs by sulforhodamine B assay relative to control; type: functional; conditions: SK-OV-3, 48 h, read-out: Activity
RPMI-8226 [1] = assay: Cytotoxicity against human RPMI8226 cells assessed as cell growth at 1 uM after 48 hrs by sulforhodamine B assay relative to control; type: functional; conditions: RPMI-8226, 48 h, read-out: Activity
HCT-116 = assay: Cytotoxicity against human HCT116 cells assessed as cell growth at 0.01 uM after 48 hrs by sulforhodamine B assay relative to control; type: functional; conditions: HCT-116, 48 h, read-out: Activity
RPMI-8226 [2] = assay: Cytotoxicity against human RPMI8226 cells assessed as growth inhibition after 48 hrs by sulforhodamine B assay; type: functional; conditions: RPMI-8226, 48 h
NCI-H23 = assay: Cytotoxicity against human NCI-H23 cells assessed as cell growth at 0.01 uM after 48 hrs by sulforhodamine B assay relative to control; type: functional; conditions: NCI-H23, 48 h, read-out: Activity
DU-145 [3] = assay: Cytotoxicity against human DU145 cells assessed as cell growth at 10 uM after 48 hrs by sulforhodamine B assay relative to control; type: functional; conditions: DU-145, 48 h, read-out: Activity
SW-620 [4] = assay: Cytotoxicity against human SW620 cells assessed as cell growth at 1 uM after 48 hrs by sulforhodamine B assay relative to control; type: functional; conditions: SW-620, 48 h, read-out: Activity
KM12 [5] = assay: Cytotoxicity against human KM12 cells assessed as cell growth at 10 uM after 48 hrs by sulforhodamine B assay relative to control; type: functional; conditions: KM12, 48 h, read-out: Activity
RPMI-8226 [6] = assay: Cytotoxicity against human RPMI8226 cells assessed as cell growth at 0.1 uM after 48 hrs by sulforhodamine B assay relative to control; type: functional; conditions: RPMI-8226, 48 h, read-out: Activity
SW-620 [7] = assay: Cytotoxicity against human SW620 cells assessed as cell growth at 100 uM after 48 hrs by sulforhodamine B assay relative to control; type: functional; conditions: SW-620, 48 h, read-out: Activity
K562 [8] = assay: Cytotoxicity against human K562 cells assessed as cell growth at 0.1 uM after 48 hrs by sulforhodamine B assay relative to control; type: functional; conditions: K562, 48 h, read-out: Activity
SF-539 = assay: Cytotoxicity against human SF539 cells assessed as cell growth at 1 uM after 48 hrs by sulforhodamine B assay relative to control; type: functional; conditions: SF-539, 48 h, read-out: Activity
NCI-H322M [9] = assay: Cytotoxicity against human NCI-H322M cells assessed as cell growth at 100 uM after 48 hrs by sulforhodamine B assay relative to control; type: functional; conditions: read-out: Activity
MDA-MB-435 [10] = assay: Cytotoxicity against human MDA-MB-435 cells assessed as cell growth at 0.01 uM after 48 hrs by sulforhodamine B assay relative to control; type: functional; conditions: MDA-MB-435, 48 h, read-out: Activity
U-251 = assay: Cytotoxicity against human U251 cells assessed as cell growth at 100 uM after 48 hrs by sulforhodamine B assay relative to control; type: functional; conditions: U-251, 48 h, read-out: Activity
SW-620 [11] = assay: Cytotoxicity against human SW620 cells assessed as growth inhibition after 48 hrs by sulforhodamine B assay; type: functional; conditions: SW-620, 48 h
SN12C = assay: Cytotoxicity against human SN12C cells assessed as cell growth at 1 uM after 48 hrs by sulforhodamine B assay relative to control; type: functional; conditions: read-out: Activity
BT-549 = assay: Cytotoxicity against human BT549 cells assessed as cell growth at 10 uM after 48 hrs by sulforhodamine B assay relative to control; type: functional; conditions: BT-549, 48 h, read-out: Activity
UACC-62 [12] = assay: Cytotoxicity against human UACC62 cells assessed as cell growth at 0.01 uM after 48 hrs by sulforhodamine B assay relative to control; type: functional; conditions: UACC-62, 48 h, read-out: Activity
786-0 = assay: Cytotoxicity against human 786-0 cells assessed as cell growth at 10 uM after 48 hrs by sulforhodamine B assay relative to control; type: functional; conditions: 786-0, 48 h, read-out: Activity
SF-268 = assay: Cytotoxicity against human SF268 cells assessed as cell growth at 1 uM after 48 hrs by sulforhodamine B assay relative to control; type: functional; conditions: SF-268, 48 h, read-out: Activity
NCI-H322M [13] = assay: Cytotoxicity against human NCI-H322M cells assessed as cell growth at 0.1 uM after 48 hrs by sulforhodamine B assay relative to control; type: functional; conditions: read-out: Activity
DU-145 [14] = assay: Cytotoxicity against human DU145 cells assessed as cell growth at 100 uM after 48 hrs by sulforhodamine B assay relative to control; type: functional; conditions: DU-145, 48 h, read-out: Activity
OVCAR-5 = assay: Cytotoxicity against human OVCAR5 cells assessed as cell growth at 1 uM after 48 hrs by sulforhodamine B assay relative to control; type: functional; conditions: OVCAR-5, 48 h, read-out: Activity
OVCAR-4 = assay: Cytotoxicity against human OVCAR4 cells assessed as cell growth at 0.01 uM after 48 hrs by sulforhodamine B assay relative to control; type: functional; conditions: OVCAR-4, 48 h, read-out: Activity
HCT-15 = assay: Cytotoxicity against human HCT15 cells assessed as cell growth at 0.1 uM after 48 hrs by sulforhodamine B assay relative to control; type: functional; conditions: HCT-15, 48 h, read-out: Activity
MCF7 = assay: Cytotoxicity against human MCF7 cells assessed as growth inhibition after 48 hrs by MTT assay; type: functional, cell-based; conditions: MCF7, 48 h
KM12 [15] = assay: Cytotoxicity against human KM12 cells assessed as cell growth at 0.1 uM after 48 hrs by sulforhodamine B assay relative to control; type: functional; conditions: KM12, 48 h, read-out: Activity
MDA-MB-435 [16] = assay: Cytotoxicity against human MDA-MB-435 cells assessed as cell growth at 1 uM after 48 hrs by sulforhodamine B assay relative to control; type: functional; conditions: MDA-MB-435, 48 h, read-out: Activity
UACC-62 [17] = assay: Cytotoxicity against human UACC62 cells assessed as cell growth at 100 uM after 48 hrs by sulforhodamine B assay relative to control; type: functional; conditions: UACC-62, 48 h, read-out: Activity
ACHN = assay: Cytotoxicity against human ACHN cells assessed as growth inhibition after 48 hrs by sulforhodamine B assay; type: functional
K562 [18] = assay: Cytotoxicity against human K562 cells assessed as growth inhibition after 48 hrs by sulforhodamine B assay; type: functional; conditions: K562, 48 h
HL-60(TB) = assay: Cytotoxicity against human HL-60(TB) cells assessed as cell growth at 0.1 uM after 48 hrs by sulforhodamine B assay relative to control; type: functional; conditions: HL-60, 48 h, read-out: Activity
SK-MEL-28 = assay: Cytotoxicity against human SK-MEL-28 cells assessed as cell growth at 100 uM after 48 hrs by sulforhodamine B assay relative to control; type: functional; conditions: SK-MEL-28, 48 h, read-out: Activity
PC-3 = assay: Cytotoxicity against human PC3 cells assessed as cell growth at 0.1 uM after 48 hrs by sulforhodamine B assay relative to control; type: functional; conditions: PC-3, 48 h, read-out: Activity
OVCAR-8 = assay: Cytotoxicity against human OVCAR8 cells assessed as cell growth at 100 uM after 48 hrs by sulforhodamine B assay relative to control; type: functional; conditions: OVCAR-8, 48 h, read-out: Activity

Which results are given for `COc1cc(-c2cc(/C=C/C(=O)c3ccc4c(c3)OCO4)[nH]n2)cc(OC)c1OC`?
growth at 10 µM (SK-OV-3): 33%; growth at 1 µM (RPMI-8226 [1]): 36%; growth at 0.01 µM (HCT-116): 104%; LC50 (RPMI-8226 [2]): > 100 µM; TGI (RPMI-8226 [2]): 2.94 µM; growth at 0.01 µM (NCI-H23): 96%; growth at 10 µM (DU-145 [3]): -2%; growth at 1 µM (SW-620 [4]): 88%; growth at 10 µM (KM12 [5]): -69%; growth at 0.1 µM (RPMI-8226 [6]): 83%; growth at 100 µM (SW-620 [7]): 1%; growth at 0.1 µM (K562 [8]): 102%; growth at 1 µM (SF-539): 86%; growth at 100 µM (NCI-H322M [9]): -9%; growth at 0.01 µM (MDA-MB-435 [10]): 96%; growth at 100 µM (U-251): -56%; LC50 (lethal concentration, 50% net cell kill) (SW-620 [11]): > 100 µM; growth at 1 µM (SN12C): 91%; growth at 10 µM (BT-549): -20%; growth at 0.01 µM (UACC-62 [12]): 98%; growth at 10 µM (786-0): -30%; growth at 1 µM (SF-268): 90%; growth at 0.1 µM (NCI-H322M [13]): 95%; growth at 100 µM (DU-145 [14]): -15%; growth at 1 µM (OVCAR-5): 88%; growth at 0.01 µM (OVCAR-4): 91%; growth at 0.1 µM (HCT-15): 92%; IC50 (MCF7): 0.9 µM; growth at 0.1 µM (KM12 [15]): 95%; growth at 1 µM (MDA-MB-435 [16]): 90%; growth at 100 µM (UACC-62 [17]): 22%; LC50 (ACHN): 7.32 µM; TGI (ACHN): 3.71 µM; LC50 (concentration killing 50% of cells) (K562 [18]): > 100 µM; TGI (K562 [18]): 9.81 µM; growth at 0.1 µM (HL-60(TB)): 95%; growth at 100 µM (SK-MEL-28): -16%; growth at 0.1 µM (PC-3): 99%; growth at 100 µM (OVCAR-8): -33%

Which growth at 10 µM (SK-OV-3) does the source give for `COc1ccc(C(=O)/C=C/c2cc(-c3ccc4c(c3)OCO4)n[nH]2)cc1OC` here?
The growth at 10 µM was 17%.

What about the growth at 1 µM (RPMI-8226 [1]) of the same compound?
The growth at 1 µM was 51%.

And the growth at 0.01 µM (HCT-116)?
The growth at 0.01 µM was 105%.

And the LC50 (RPMI-8226 [2])?
Its LC50 is > 100 µM.

What about the TGI (RPMI-8226 [2]) of the same compound?
The TGI was 5.24 µM.

And the growth at 0.01 µM (NCI-H23)?
The growth at 0.01 µM was 90%.

And the growth at 10 µM (DU-145 [3])?
The growth at 10 µM was -51%.

What about the growth at 1 µM (SW-620 [4]) of the same compound?
Its growth at 1 µM is 92%.

And the growth at 10 µM (KM12 [5])?
The growth at 10 µM was -2%.

And the growth at 0.1 µM (RPMI-8226 [6])?
Its growth at 0.1 µM is 97%.

What about the growth at 100 µM (SW-620 [7]) of the same compound?
Its growth at 100 µM is -78%.

What about the growth at 0.1 µM (K562 [8]) of the same compound?
The growth at 0.1 µM was 96%.

What about the growth at 1 µM (SF-539) of the same compound?
Its growth at 1 µM is 88%.

What about the growth at 100 µM (NCI-H322M [9]) of the same compound?
The growth at 100 µM was -90%.

What about the growth at 0.01 µM (MDA-MB-435 [10]) of the same compound?
Its growth at 0.01 µM is 98%.

What about the growth at 100 µM (U-251) of the same compound?
Its growth at 100 µM is -91%.

And the LC50 (lethal concentration, 50% net cell kill) (SW-620 [11])?
Its LC50 (lethal concentration, 50% net cell kill) is 15.9 µM.

And the TGI (SW-620 [11])?
Its TGI is 4.81 µM.

And the growth at 1 µM (SN12C)?
The growth at 1 µM was 91%.

And the growth at 10 µM (BT-549)?
Its growth at 10 µM is -57%.

What about the growth at 0.01 µM (UACC-62 [12]) of the same compound?
The growth at 0.01 µM was 98%.

And the growth at 10 µM (786-0)?
Its growth at 10 µM is 5%.

And the growth at 1 µM (SF-268)?
The growth at 1 µM was 92%.

And the growth at 0.1 µM (NCI-H322M [13])?
Its growth at 0.1 µM is 88%.

What about the growth at 100 µM (DU-145 [14]) of the same compound?
The growth at 100 µM was -97%.

And the growth at 1 µM (OVCAR-5)?
Its growth at 1 µM is 86%.

What about the growth at 0.01 µM (OVCAR-4) of the same compound?
Its growth at 0.01 µM is 96%.

And the growth at 0.1 µM (HCT-15)?
Its growth at 0.1 µM is 95%.

And the IC50 (MCF7)?
Its IC50 is 2.5 µM.

And the growth at 0.1 µM (KM12 [15])?
The growth at 0.1 µM was 99%.

What about the growth at 1 µM (MDA-MB-435 [16]) of the same compound?
The growth at 1 µM was 96%.

What about the growth at 100 µM (UACC-62 [17]) of the same compound?
Its growth at 100 µM is -94%.

And the LC50 (ACHN)?
Its LC50 is > 100 µM.

And the TGI (ACHN)?
Its TGI is 56.5 µM.

What about the LC50 (concentration killing 50% of cells) (K562 [18]) of the same compound?
The LC50 (concentration killing 50% of cells) was > 100 µM.

What about the TGI (K562 [18]) of the same compound?
Its TGI is 16.7 µM.

What about the growth at 0.1 µM (HL-60(TB)) of the same compound?
The growth at 0.1 µM was 96%.

And the growth at 100 µM (SK-MEL-28)?
Its growth at 100 µM is -89%.

And the growth at 0.1 µM (PC-3)?
Its growth at 0.1 µM is 95%.

What about the growth at 100 µM (OVCAR-8) of the same compound?
The growth at 100 µM was -65%.
